# Source: patent publication US8304211B2, “Methods of screening molecular libraries and active molecules identified thereby” (priority 2002, dated 2012)
# Starred links: 1 amine or outer side, 2 acyl side, 3 side chain; linkers in the order of their positions; H or OH if unused. Residues, ends and D or L forms follow the SMILES beside them. Groups on a side chain read outwards from the residue. *: point of attachment. Pteroyl = Nc1nc2ncc(CNc3ccc(C(=O)*)cc3)nc2c(=O)[nH]1; γGlu = O=C(O)[C@H](CCC(=O)[*:2])N[*:1]
# Tests used:
# [1] = test system: normal human lymphocytes; details: 3.125-800 g/ml as printed, 2 days
# Experimental: Growth media used is the RPMI-1640 (Gibco Laboratories, Grand Island, N.Y.) supplemented with 25 mM Hepes buffer, 10% FBS serum (Gibco), 100 U/ml penicillin/streptomycin, 50 μg/ml gentamycin, 2 mM L-glutamin, 1× nonessential amino acids (Gibco)
# In a 50-ml centrifugation tube, add 10 ml of Lymphoprep™. 2. Mix 15 ml blood and 15 ml HBSS-buffer (containing heparin). 3. Carefully add the blood mixture from step 2, to the tubes containing Lymphoprep™ without mixing the phases. 4. Centrifuge at 450 g at room temperature for 45 min. 5. Isolate the Buffy-coat layer containing the PBMC (peripheral blood mononuclear cells), and place in a fresh tube. 6. Add 7 ml HBSS-buffer to the tube to wash the PBMC. 7. Centrifuge 5-10 min 600 g. 8. Remove the supernatant and wash the PBMC again with a total of 10-ml HBSS-. 9. Suspend the cells in complete media RPMI 1640. Incubate the cells in a small culture flask for 1 hour at 37° C. 10. Remove the unattached cells (lymphocytes) from the small culture flask and dilute the cells to a concentration of 5×10^5 cell/ml. 11. Dissolve drug at 10 mg/ml in PBS. 12. Add 100 μl of growth media to the rest of the wells. 13. Prepare 100 l of a series of concentration of 1600, 800, 400, 200, 100, 50, 25, 12.5, 6.25 μg/ml were made. Triplicate wells were used for each concentration as well as the control (0.0 g/ml), for each of Drug1, 2 and 3. 14. […]
# [2] = test system: SW480 cells; test: Dose response in SW480; type: cell-based, human; details: 2 days
# Experimental: 1. Dissolve the drug at a concentration of 10 mg/ml in PBS.
# 3. A confluent flask of SW480 cells was treated with trypsin and the cells were suspended in growth media at concentrations of 5×10^5 cells/ml.
# 5. Incubate at 37° C., 5% CO2 for 2 days.
# [3] = target: TrpR (G85E) (Escherichia coli, UniProt P0A881, G85E); details: peptide expressed from pPep plasmid
# Experimental: (§1) A λRTLF culture containing pTrpRep(WT), pTrpRep(T44M), pTrprG85E, and pTrpRep(None) were transformed with one of pPep(MGFLR) or pPep(MGFWR), and grown in both BTTRG and BTTRA media to an OD of 0.6 at wavelength 600 at 30° C. with shaking. Two hundred microliters of cultures assayed for β-galactosidase levels at wavelength 405 nm as described in Fenton et al (1998) BBRC 242(1):71-78.
# (§2) λRTLF cultures containing one of pTrpRep(WT), pTrpRep(T44M), pTrprG85E, or pTrpRep(None) were grown in BTTRG media supplemented with one of following synthesized peptides MGFLR, MGFWR, MGRRW, FLR, FWR at a concentration of 1 mM. The cultures were grown to an OD of 0.6 at wavelength 600 at 30° C. with shaking. Two hundred microlitres of cultures assayed for -galactosidase levels at wavelength 405 as described in Fenton et al (1998) supra.
# [4] = target: T1, TrpR(T44M) (Escherichia coli, UniProt P0A881, T44M); details: peptide expressed from pPep plasmid, arabinose induced
# Experimental: as §1, §2
# The cultures were grown to an OD of 0.6 at wavelength 600 at 30° C. with shaking.
# [5] = target: T1, TrpR(T44M); details: arabinose induced expression, both in the presence and absence of tryptophan
# Experimental: RNA was electophoresed through a 1% formaldehyde gel according to Sambrooke et al's Manual (1989). The gel was capillary blotted onto nitrocellulose filter paper using the standard protocols. RNA was UV crosslinked by 45 seconds of UV exposure. The filter was prehydridised for 3 hours at 65 C and then hybridised for 36 hours at 65° C. Hybridisation buffers were in accordance with Sambrook. The filter was dried at room temperature and placed in a phosphoimager cassette overnight. The filter was then scanned by Molecular Dynamics phosphoimager 400e (880 E. Argues Ave, Sunnyvale Calif. 94086).
# [6] = test system: SW480.7 cells; test: Validation of selected peptide ligand: cell proliferation/death after transfection; type: cell-based, Homo sapiens (human); details: SW480.7, ligand expressed from pCEP4 plasmid, 15 days without puromycin selection
# Experimental: (§3) Cells SW480.7, U-2OS, and Sa-os2 were transfected with peptide ligand and pCEP4 parallelly using the calcium phosphate method.
# (§4) After transfection, cells were cultured without drug selection and diluted at the ratio of 1:100 every five days. Cell proliferation status was closely observed until ligand transfected SW480.7 cells died out. Life staining with 0.4% trypan blue was applied to determine the death of the cells. Dead cells can not exclude the dye thus were stained blue. Living cells can pump the dye outside thus were not stained.
# [7] = test system: Saos-2 cells; test: as above; type: cell-based, Homo sapiens (human); details: Saos-2 (p53 null), ligand expressed from pCEP4 plasmid, without puromycin selection
# Experimental: as §3, §4
# [8] = test system: U2-OS cells; test: as above; type: cell-based, Homo sapiens (human); details: U2-OS (wild type p53), ligand expressed from pCEP4 plasmid, without puromycin selection
# Experimental: as §3, §4
# [9] = test system: R273H/P309S p53 mutant in SW480.7 cells; test: RT-PCR analysis of mRNA level of p53 transactivated genes; type: cell-based, Homo sapiens (human); details: ligand transfected SW480.7 compared with empty pCEP4 transfected SW480.7, RT-PCR
# Excerpt: Total RNA was collected, from two wells of one ligand transfected SW480.7 plate and one pCEP4 transfected SW480.7 plate each day on day 0, day 1, and day 2 after transfection. Thus RNA samples were harvested as SW480.7/Ligand-0 day, SW480.7/Ligand-1 day, SW480.7/Ligand-2 day, SW480.7/pCEP4-0 day, SW480.7/pCEP4-1 day, SW480.7/pCEP4-2 day. Protocol for total RNA extraction by TRIZOL® Reagent was according to that given by Life Technology:
# First-Strand cDNA Synthesis • 1. For each RNA sample, combine the following reagents in a sterile 0.2-ml reaction tube:
# • 2. Mix and spin the tube briefly. • 3. Incubate the tube at 70° C. in a thermal cycler for 2 min. • 4. Spin the tube briefly to collect contents at the bottom. Keep tube at room temperature. • 5. Add the following to each reaction tube:
# • 6. Gently vortex and spin the tubes briefly. • 7. Incubate the tubes at 42° C. for 1 hr in an air incubator or cycler. • 8. Add 40 μl TE buffer (10 mM Tris (pH7.6), 1 mM EDTA) to dilute the first-strand reaction product. • 9. Heat tubes at 72° C. for 7 min to inactivate reverse transcriptase. • 10. Samples can be stored at −20° C. for up to three months. cDNA Amplification by PCR • 1. Preheat the PCR thermal cycler to 95° C. • 2. For each reaction, 5 μl of diluted first-strand cDNA and 5 μl of deionized water are added to a labeled 0.2-ml reaction tube. • 3. Prepare a master mix for all reaction tubes, plus one additional tube. For each reaction:
# • 4. Mix by vortexing and spin the tube briefly. • 5. Aliquot 40 μl of the PCR Master Mix into each tube from Step 2. • 6. Cap the tube, and place it in the preheated thermal cycler. • 7. PCR was carried out using the following cycling parameters:
# • 8. Electrophoreses 5 μl of each PCR reaction alongside 0.1 μg of 1-kb DNA ladder on a 1.2% agarose/EtBr gel in 1× TBE buffer. Results
compound,measurement,setting,value
"CSCC[C@H](N)C(=O)NCC(=O)N[C@@H](Cc1c[nH]c2ccccc12)C(=O)N[C@@H](CS)C(=O)N[C@H](C(=O)N[C@@H](CCCCNC(=O)CC[C@H](NC(=O)c1ccc(NCc2cnc3nc(N)[nH]c(=O)c3n2)cc1)C(=O)O)C(=O)O)[C@@H](C)O [Drug 2, MGWCT-K-Folic] (H-MGWCTK([γGlu-Pteroyl])-OH; N-terminus and C-terminus assumed)",Effect on normal human lymphocytes (number of surviving cells),[1],no effect
same,Activity on metastatic cancer cells SW480 (number of surviving cells),[2]; 3.125-800 μg/ml,best results
same,IC50 as molar amount per well,[2]; SW480 cells,0.0257 μmol/well
MGFWR,Restoration of TrpR mutant G85E function (β-galactosidase activity),[3],did not restore
same,Restoration of TrpR(T44M) function (β-galactosidase activity),[4],restored TrpR(T44M) function
MGFLR,Restoration of TrpR mutant G85E function (β-galactosidase activity),[3],did not restore
same,Restoration of TrpR(T44M) function (β-galactosidase activity),[4],restored TrpR(T44M) function
same,Transcription of LacZ,[5],repressed
same,Transcription of PheS,[5],repressed
"MGWCT (peptide derivative) [Drug 3, Penta-peptide, no folate conjugation]",Cell status after transfecting the ligand,[6],could no longer attach to the wall and died
same,Cell status after transfecting the ligand,[7],growing well
same,Cell status after transfecting the ligand,[8],growing well
same,mRNA level of 14-3-3σ,[9],much higher
same,mRNA level of CD95,[9],much higher
same,mRNA level of p21 (WAF1/Cip1),[9],much higher
